In patent publication US20240263163A1, “CELL-FREE REGIONS BY LABEL-FREE MAGNETIC EXCLUSION” (McMaster University, priority 2021, published 2024):
“Also recorded” adds a separate entry of the source.

Key:
HBEC3 KT cells [1] = assay: resazurin-based metabolism assay (Presto Blue HS); format: cell-based; conditions: 25×10^−3 M paramagnetic solution 3 h, then 24, 48, 96 and 144 h
Protocol: The experimental study also involved performing a metabolism assay. A 250 μL suspension of ˜4000 HBEC3 KT cells in 25×10^−3 M paramagnetic solution was added to the wells of a 96-well plate. Following a 3 h incubation period, the paramagnetic solution was replaced with the culture medium. An equal number of cells suspended in the culture medium were added to the wells as controls. A resazurin-based assay (Presto Blue HS, ThermoFisher) was used to analyze cell metabolism at 24, 48, 96, and 144 h. The fluorescence intensity was measured at multiple spots within each well using excitation/emission wavelengths of 560/590 nm (SpectraMax i3, Molecular Devices). Blank wells containing only culture medium were used to account for background fluorescence. The average fluorescence intensity of the blanks was subtracted from the average fluorescence value obtained from each well of the Gadolinium and control groups.
In the experimental study, all statistical tests were performed using the GraphPad Prism software (version 9.0.0). […]
(§1) The effect of the residual Gd^3+ on cell viability was assessed at 24, 48, 96, and 144 h using a live/dead assay. […] Cell metabolism, which is an indicator of viability, was also measured using a resazurin-based assay (Presto Blue HS). The increase in the fluorescence intensity values over time indicates cell proliferation.

HBEC3 KT cells [2] = assay: transcriptome analysis (Clariom S microarray); format: cell-based, human; conditions: 25×10^−3 M paramagnetic solution 3 h, RNA after 24 h, 21,448 genes, fold-change cutoff 2, FDR p<0.05, N=4
Protocol: The experimental study also involved performing transcriptome analysis. A 1.5 mL suspension of ˜500,000 HBEC3 KT cells in 25×10^−3 M paramagnetic solution was added to the wells of a 12-well TCT plate. Following a 3 h incubation period, the paramagnetic solution was replaced with the culture medium. After 24 h, total RNA was isolated and purified using RNeasy Mini Kit (Qiagen) as per the manufacturer's protocol. The RNA concentration and purity were measured using a spectrophotometer (NanoDrop, ThermoFisher). Transcriptome analysis was performed using Clariom S microarray gene chips (ThermoFisher).
In the experimental study, all statistical tests were performed using the GraphPad Prism software (version 9.0.0). Two-way ANOVA with Bonferroni post hoc tests were performed to assess the effect of residual Gd^3+ on cell viability and metabolism over time. […] A p-value<0.05 was considered statistically significant. The statistical evaluation of the microarray datasets was performed using the transcriptome analysis console (TAC) software (ThermoFisher). The raw gene expression data were normalized using the signal space transformation-robust multiarray analysis (SST-RMA) algorithm^57. A fold-change cutoff value of 2 was used to identify the differentially expressed genes^42. […]

HBEC3 KT cells [3] = assay: cell-free area closure of annular monolayers formed by magnetic exclusion; format: cell-based, human; conditions: for closure rate of cell-free area: 0 h to 16 h, N=3
Protocol: The cells were maintained at 37° C. and 5% CO2 in a humidified atmosphere.
The magnetic exclusion technique was applied to form annular HBEC3 KT monolayers in which HBEC3 KT cells were trypsinized at ˜80% confluency. A 96-well flat-bottom TCT plate (IBIDI) was placed on an array of coaxially arranged ring and cylinder magnets (N52 grade, Zigmyster Magnets). The stock gadolinium-based paramagnetic solution (1 M) was diluted to 25×10^−3 M using the serum-free culture medium. A 250 μL suspension of ˜50,000 cells in 25×10^−3 M paramagnetic solution was added to the wells. After a 3 h incubation period (37° C. and 5% CO2 in a humidified atmosphere), the well plate was removed from the magnet array. The paramagnetic solution was removed, and the wells were washed twice with 200 μL culture medium. […] Tissue culture wells were plasma treated to enhance the attachment of the ECM proteins to the well surfaces. A 300 μL solution of collagen I (500 μg mL^−1) and fibronectin (12 μg mL^−1) was added to the wells. The well plate was incubated at 4° C. overnight, and subsequently, the coated wells were rinsed with phosphate-buffered saline (PBS). Annular HBEC3 KT monolayers were assembled magnetically on the coated surfaces. A fluorescent dye solution of 2 μM Calcein AM and Hoechst 33342 (2 drops per mL) was used to stain the monolayers. Brightfield and fluorescent images were taken using a 10× objective of an EVOS M7000 inverted microscope (ThermoFisher). Excitation/emission wavelengths of 470/525 nm and 357/447 nm were used for Calcein AM and Hoechst 33342, respectively.
The experimental study also involved assessing annular HBEC3 KT monolayer formation by gravitational settling. Annular inserts were 3D printed with a Formlabs Form 2 printer using a clear resin (RS-F2-GPCL-04). The inserts were attached to the well surfaces of a 12-well plate using patterned double-sided silicone adhesive tapes. The well plates containing the inserts were sterilized with UV radiation. A 100 μL suspension of ˜50,000 HBEC3 KT cells in culture medium was added to the inserts. After a 3 h incubation period, the inserts were removed, and the wells were washed twice with 500 μL culture medium.
Cell counting and geometric measurements were automatically determined in the experimental study from fluorescent images with ImageJ Fiji. The watershed segmentation algorithm (Process—Binary—Watershed) was used to distinguish cells in high cell density regions. The brightfield image contrast was adjusted using the Enhance Local Contrast (CLAHE) ImageJ plugin to measure the cell-free area. The Sobel edge detection algorithm (Process—Find edges) was used to highlight the boundaries of the monolayers. Next, image smoothing was performed using the Gaussian Blur filter (Process—Filter—Gaussian Blur). The cell-free areas were measured automatically after setting the image threshold. The equivalent diameters were calculated from the cell-free areas. The monolayer annulus width was determined by taking the average of the annulus widths measured at four orthogonal positions. The straight-line tool of ImageJ was used for the measurements.
The cell-free area closure of the annular monolayers was also studied in the experiments. […] The annular monolayers were produced on TCT and collagen I-fibronectin coated well surfaces to investigate the influence of the underlying substrate on the closure rate.
The initial boundary of the cell-free region is marked by a white dotted line (e.g., see FIG. 6A).
The closure rates are calculated by measuring the differences between the mean initial and final cell-free areas at 0 h and 16 h.

cells = conditions: concentration of 25 mM; cited from earlier work
HBEC3 KT cells [4] = assay: live/dead assay (NucBlue Live / NucGreen Dead); format: cell-based
Protocol: The experimental study also involved performing live/dead assays. A 400 μL suspension of ˜5000 HBEC3 KT cells in 25×10^−3 M paramagnetic solution was added to the wells of a 48-well TCT plate. After a 3 h incubation period, the paramagnetic solution was replaced with the culture medium. As controls, an equal number of cells were seeded into wells containing only the culture medium. The cell viability was assessed using the NucBlue Live and NucGreen Dead nuclear acid stains (ReadyProbes, ThermoFisher). Fluorescent images were taken at 24, 48, 96, and 144 h. Excitation/emission wavelengths of 357/447 nm and 470/525 nm were used for NucBlue and NucGreen, respectively. The quantification of live and dead cells was performed using ImageJ Fiji.
In the experimental study, all statistical tests were performed using the GraphPad Prism software (version 9.0.0). Two-way ANOVA with Bonferroni post hoc tests were performed to assess the effect of residual Gd^3+ on cell viability and metabolism over time. […] A p-value<0.05 was considered statistically significant. […]
as §1

HBEC3 KT cells [5] = assay: reaction-diffusion (FKPP/Porous-Fisher) numerical model and logistic growth fit of cell-free area closure; set-up: species or system human; conditions: for growth rate λ: from logistic growth equation, U at 16 h and U0; for D0 / D1 / m: Replicate 1
Protocol: Numerical model: The Fisher—Kolmogorov—Petrovsky—Piskunov (FKPP) reaction-diffusion equation is routinely used to model the closure of rectangular cell-free areas in scratch-based assays^27,47,48. The FKPP equation consists of a diffusion term that describes cell migration and a source term representing cell proliferation. The one-dimensional axisymmetric form of the FKPP equation is given by equation (6):^49
where U denotes the cell density (cells mm^−2) and D the cell diffusivity (mm^2 h^−1). The source term consists of a logistic growth function G=λ(1−U/K) with growth rate λ(h^−1) and carrying capacity K (cells mm^−2)^47. The carrying capacity is the maximum density for a cell monolayer when contact inhibition reduces the net cell proliferation to zero^47. The classical FKPP model assumes a constant cell diffusivity D=D0, where D0 is the diffusivity for isolated cells^27,47. In contrast, the Porous-Fisher model, which is an extension of the FKPP model, uses a diffusivity function D=D0(U/K)^m that increases with cell density (m>0), where D0 denotes the maximum diffusivity^47,50.
Besides cell migration, cell proliferation leads to the closure of cell-free areas. To determine […], a logistic growth equation^51 was used as shown in equations 7 and 8:
where U0 denotes the initial cell density. The maximum cell density determined by counting cells in the confluent regions of annular HBEC 3KT monolayers gives K=1690 cells mm^−2, which is consistent with the previously reported values^28,52. Experimentally derived values of U at 16 h and U0 were used to calculate λ from Equation 8.
Brightfield images of the annular monolayers were taken every 2 h over 16 h to track the closures of the cell-free areas on TCT surfaces. Consistent with the monolayer geometry, circular tracks of ˜0.14 mm width were superimposed on the brightfield images to manually count the cells within the domain 0≤r≤Rmax. The total number of cells counted in each track was divided by the respective annulus area to generate experimental cell density datasets. In the cell density plots, each track was represented by the radial distance of its midpoint from the center of the annular monolayer.
The finite volume method (FVM) with a time marching scheme was used to discretize and predict cell density (Up) values from Equation 6. A linear combination of the classical FKPP and Porous-Fisher diffusivity functions were used, i.e., D=D0+D1(U/K)^m, to model the spatiotemporal change in cell density on the TCT surfaces. The combined diffusivity function was previously used to fit cell density profiles of scratch assays with rectangular cell-free areas^50. A zero net flux boundary condition was imposed at both r=0 and r=Rmax^28,50.
As the cell density decreases at the boundary Rmax, the zero net flux condition applied at this boundary is an approximation. A Genetic Algorithm (GA)-based error minimization approach was implemented to minimize the root mean squared error (RMSE) between Up and the experimental (Uexp) cell density values^53 as shown in equation 9.
The cell density was measured at 15 locations within 0≤r≤Rmax and the index i denotes the location number. The index j indicates timepoints, where j=1, 2, 3 and 4 corresponds to t=4, 8, 12 and 16 h. […] The limits for D0 are 0≤D0≤0.004 mm^2 h^−1, where D0=0.004 mm^2 h^−1 is the maximum isolated-cell diffusivity value reported in the literature^28,50.
The experimentally obtained cell-free area closure rates were approximately two orders higher than the maximum value of D0(Section 2.3). […] The exponent m determines whether the diffusivity D changes linearly or non-linearly with a change in cell density. However, the biological meaning of m is not yet fully understood^47. Here, the limits 0≤m≤4 are considered, where m=4 is the highest value reported in the literature^28,50. The experimentally derived values of λ are used in the model. […]

[6] = EGF 0.16 ng mL^−1, TCT surfaces
[7] = EGF 0.80 ng mL^−1, TCT surfaces

## [Gd+3] [Gd^3+]
HBEC3 KT cells [1]
  cell metabolism (fluorescence intensity) vs control: No significant difference
HBEC3 KT cells [2]
  differential gene expression / impact on transcriptional profiles: no statistically significant differentially expressed genes; also recorded: statistically insignificant
HBEC3 KT cells [3]; vs gravity-assisted monolayers, no EGF, 0 and 16 h, TCT surfaces
  effect on closure of magnetically assembled monolayers: insignificant
cells
  effect on cell viability: does not affect cell viability
HBEC3 KT cells [4]; 25×10^−3 M paramagnetic solution 3 h, then 24, 48, 96 and 144 h, vs control
  effect on cell viability (viable cell counts): insignificant
HBEC3 KT cells [4]; live/dead and metabolism assays, residual Gd^3+
  toxicity to the cells: not toxic

## epidermal growth factor [EGF]
HBEC3 KT cells [3]; TCT surfaces, 0.16 ng mL^−1 EGF
  closure rate of cell-free area: ~0.56±0.05 mm^2 h^−1
HBEC3 KT cells [3]; TCT surfaces, 0.8 ng mL^−1 EGF
  closure rate of cell-free area: ~0.58±0.01 mm^2 h^−1
HBEC3 KT cells [3]; collagen I-fibronectin surfaces, 0.16 ng mL^−1 EGF
  closure rate of cell-free area: ~0.61±0.01 mm^2 h^−1
HBEC3 KT cells [3]; collagen I-fibronectin surfaces, 0.8 ng mL^−1 EGF
  closure rate of cell-free area: ~0.62±0.02 mm^2 h^−1
HBEC3 KT cells [3]; collagen I-fibronectin surfaces, 0.8 ng mL^−1 EGF, at 4 h, in contrast to TCT surfaces
  change in cell-free areas: significant decrease
HBEC3 KT cells [3]; collagen I-fibronectin surfaces, 0.8 ng mL^−1 EGF, at 16 h
  closure of cell-free regions: near-complete closure
HBEC3 KT cells [5]; 0.16 ng mL^−1 EGF
  growth rate λ: ~0.03 h⁻¹
HBEC3 KT cells [5]; 0.8 ng mL^−1 EGF
  growth rate λ: ~0.03 h⁻¹
HBEC3 KT cells [5]; EGF 0.16 ng mL^−1
  λ: 2.91 h^−1 (×10^−2)
HBEC3 KT cells [5]; [6]
  D0: 3.06 mm^2 h^−1 (×10^−3)
  D1: 3.02 mm^2 h^−1
  m: 1.97
HBEC3 KT cells [5]; EGF 0.16 ng mL^−1, tmax=24 h
  φ (dimensionless number, higher indicates faster closure): 3.23
HBEC3 KT cells [5]; EGF 0.80 ng mL^−1
  λ: 2.91 h^−1 (×10^−2)
HBEC3 KT cells [5]; [7]
  D0: 3.91 mm^2 h^−1 (×10^−3)
  D1: 3.75 mm^2 h^−1
  m: 2.62
HBEC3 KT cells [5]; EGF 0.80 ng mL^−1, tmax=24 h
  φ (dimensionless number, higher indicates faster closure): 3.60
